According to ChEMBL document CHEMBL1146174, “Synthesis of antimicrobial 2,9,10-trisubstituted-6-oxo-7,12-dihydro-chromeno[3,4-b]quinoxalines” (2006):

Assays:
Bacillus subtilis [1] = assay: Antibacterial activity against Bacillus subtilis by measuring zone of inhibition at 100 ug/ml after 24 hrs; assay type: functional; conditions: read-out: IZ
Staphylococcus aureus [2] = assay: Antibacterial activity against Staphylococcus aureus by measuring zone of inhibition at 100 ug/ml after 24 hrs; assay type: functional; conditions: read-out: IZ
Fusarium oxysporum [3] = assay: Antifungal activity against Fusarium oxysporum by measuring zone of inhibition at 100 ug/ml after 48 hrs; assay type: functional; conditions: read-out: IZ
Pseudomonas aeruginosa [4] = assay: Antibacterial activity against Pseudomonas aeruginos by measuring zone of inhibition at 100 ug/ml after 24 hrs; assay type: functional; conditions: read-out: IZ
Escherichia coli [5] = assay: Antibacterial activity against Escherichia coli by measuring zone of inhibition at 100 ug/ml after 24 hrs; assay type: functional; conditions: read-out: IZ
Aspergillus flavus [6] = assay: Antifungal activity against Aspergillus flavus by measuring zone of inhibition at 100 ug/ml after 48 hrs; assay type: functional; conditions: read-out: IZ
Staphylococcus aureus [7] = assay: Antibacterial activity against Staphylococcus aureus by measuring zone of inhibition at 30 ug after 24 hrs; assay type: functional; conditions: read-out: IZ
Pseudomonas aeruginosa [8] = assay: Antibacterial activity against Pseudomonase aeruginosa by measuring zone of inhibition at 30 ug after 24 hrs; assay type: functional; conditions: read-out: IZ
Bacillus subtilis [9] = assay: Antibacterial activity against Bacillus subtilis by measuring zone of inhibition at 30 ug after 24 hrs; assay type: functional; conditions: read-out: IZ
Escherichia coli [10] = assay: Antibacterial activity against Escherichia coli by measuring zone of inhibition at 30 ug after 24 hrs; assay type: functional; conditions: read-out: IZ
Aspergillus flavus [11] = assay: Antifungal activity against Aspergillus flavus by measuring zone of inhibition at 30 ug after 48 hrs; assay type: functional, organism-based
Fusarium oxysporum [12] = assay: Antifungal activity against Fusarium oxysporum by measuring zone of inhibition at 30 ug after 48 hrs; assay type: functional, organism-based

Row | Compound | zone of inhibition at 100 µg/mL (Bacillus subtilis [1]) | zone of inhibition at 100 µg/mL (Staphylococcus aureus [2]) | zone of inhibition at 100 µg/mL (Fusarium oxysporum [3]) | zone of inhibition at 100 µg/mL (Pseudomonas aeruginosa [4]) | zone of inhibition at 100 µg/mL (Escherichia coli [5]) | zone of inhibition at 100 µg/mL (Aspergillus flavus [6]) | zone of inhibition at 30 µg/disc (Staphylococcus aureus [7]) | zone of inhibition at 30 µg/disc (Pseudomonas aeruginosa [8]) | zone of inhibition at 30 µg/disc (Bacillus subtilis [9]) | zone of inhibition at 30 µg/disc (Escherichia coli [10]) | inhibition zone (IZ) (Aspergillus flavus [11]) | inhibition zone (IZ) (Fusarium oxysporum [12])
1 | O=c1oc2ccc(Cl)cc2c2c1Nc1ccccc1N2 | 3 mm | 6 mm | 4 mm | 5 mm | 4 mm | 3 mm |  |  |  |  |  | 
2 | O=c1oc2ccccc2c2c1Nc1ccccc1N2 | 1 mm | 2 mm | 3 mm | 3 mm | 2 mm | 2 mm |  |  |  |  |  | 
3 | Cc1cc2c(cc1C)Nc1c(c(=O)oc3ccc(Br)cc13)N2 | 7 mm | 9 mm | 5 mm | 7 mm | 6 mm | 4 mm |  |  |  |  |  | 
4 | O=c1oc2ccc(F)cc2c2c1Nc1ccccc1N2 | 3 mm | 5 mm | 3 mm | 4 mm | 3 mm | 2 mm |  |  |  |  |  | 
5 | Cc1ccc2oc(=O)c3c(c2c1)Nc1cc(C)c(C)cc1N3 | 3 mm | 5 mm | 4 mm | 5 mm | 4 mm | 2 mm |  |  |  |  |  | 
6 | O=c1oc2ccc(Br)cc2c2c1Nc1ccccc1N2 | 4 mm | 8 mm | 5 mm | 6 mm | 5 mm | 4 mm |  |  |  |  |  | 
7 | COc1ccc2oc(=O)c3c(c2c1)Nc1cc(C)c(C)cc1N3 | 9 mm | 11 mm | 8 mm | 10 mm | 9 mm | 6 mm |  |  |  |  |  | 
8 | Cc1cc2c(cc1C)Nc1c(c(=O)oc3ccccc13)N2 | 2 mm | 4 mm | 3 mm | 4 mm | 3 mm | 2 mm |  |  |  |  |  | 
9 | CN[C@@H]1[C@H](O[C@H]2[C@H](O[C@H]3[C@H](O)[C@@H](O)[C@H](N=C(N)N)[C@@H](O)[C@@H]3N=C(N)N)O[C@@H](C)[C@]2(O)C=O)O[C@@H](CO)[C@H](O)[C@H]1O [STREPTOMYCIN] |  |  |  |  |  |  | 12 mm | 10 mm | 10 mm | 11 mm |  | 
10 | Cc1ccc2oc(=O)c3c(c2c1)Nc1ccccc1N3 | 2 mm | 3 mm | 2 mm | 4 mm | 3 mm | 2 mm |  |  |  |  |  | 
11 | Cc1cc2c(cc1C)Nc1c(c(=O)oc3ccc(Cl)cc13)N2 | 5 mm | 7 mm | 4 mm | 9 mm | 8 mm | 3 mm |  |  |  |  |  | 
12 | Cc1cc2c(cc1C)Nc1c(c(=O)oc3ccc(F)cc13)N2 | 5 mm | 6 mm | 4 mm | 8 mm | 7 mm | 3 mm |  |  |  |  |  | 
13 | COc1ccc2oc(=O)c3c(c2c1)Nc1ccccc1N3 | 5 mm | 8 mm | 6 mm | 7 mm | 6 mm | 5 mm |  |  |  |  |  | 
14 | Cc1cc2c(cc1C)Nc1c(c(=O)oc3ccc([N+](=O)[O-])cc13)N2 | 4 mm | 5 mm | 4 mm | 5 mm | 4 mm | 4 mm |  |  |  |  |  | 
15 | NYSTATIN |  |  |  |  |  |  |  |  |  |  | 9 mm | 8 mm
16 | O=c1oc2ccc([N+](=O)[O-])cc2c2c1Nc1ccccc1N2 | 4 mm | 5 mm | 3 mm | 4 mm | 4 mm | 4 mm |  |  |  |  |  | 
